According to patent US20070166367A1, “Adept or gdept producing acetaldehyde” (priority 2004, published 2007):
Like-named read-outs stand apart in the source and are kept apart here.

Experiments:
Ad-ADH CMT-64 cells [1] = test: Ad-ADH ethanol cytotoxicity assay; type: cell-based; conditions: for numbers of cells: seeded at 5×10^5 on Day 0, day 2, FIG. 4; for total cell number as % of the starting number: ethanol
Protocol: (§1) Cells were placed into 6 well plates at 5×10^6 per well. After overnight incubation, the cells were washed twice in PBS then incubated with virus (Hela MOI 100, CMT-64 MOI 1000) at 37° C. for 1 hr in 1 ml of serum free media. Following addition of 3 mls more of tissue culture medium the cells were incubated overnight, assayed for ADH activity and used for experiments as below.

Ad-ADH Hela cells = test: Ad-ADH ethanol cytotoxicity assay; type: cell-based; conditions: seeded at 5×10^5 on Day 0, day 2, FIG. 4
Protocol: as §1

Daudi lymphoma cells = test: acetaldehyde combined with Cisplatin in vitro; type: cell-based
Source text: The results shown are the number of live cells at each time point shown as a % of the number of cells at the start of the expt (ie 100% at time 0 hrs).

CMT-64 = test: in vitro acetaldehyde and cisplatin toxicity assay; type: cell-based; conditions: FIG. 2
Protocol: (§2) Standard tissue culture techniques were used to maintain Hela, Daudi, Jurkat, CMT-64 cells in flasks in DMEM+10% FCS in a 37° C. incubator.
(§3) Cell lines subcloned into 25-cm^2 flasks and incubated in media containing dilutions of acetaldehyde, cisplatin or both. Flasks remained sealed during incubation and the media and acetaldehyde/cisplatin were replaced daily. Viable cell counts were made using Trypan blue exclusion and a standard haemocytometer.

Daudi = test: in vitro acetaldehyde and cisplatin toxicity assay; type: cell-based; conditions: higher cell density, 3 days exposure, FIG. 2
Protocol: as §2, §3

[2] = cited from earlier work
[3] = in vivo; cited from earlier work
[4] = chronic exposure to ethanol (4%), +12 weeks; cited from earlier work
Ad-ADH CMT-64 cells [5] = test system: Ad-ADH CMT-64 cells
Protocol: (§4) The animal experiment was approved by the Cancer Research UK animal use and safety committee and the Home Office before initiation. On the day prior to injection, 6×10^6 CMT-64 cells were transduced with the Ad-ADH virus in vitro, then on Day 0 adult C57B/6 mice received s-c injections in the flank of 5×10^5 Ad-ADH CMT-64 cells (groups 1 and 2) or mock infected CMT-64 cells (groups 3 and 4) suspended in 100 uL of PBS. On days 0-4 groups 1 and 3 were injected with 500 ul of 12% ethanol (2 g/kg) solution IP and groups 2 and 4 received 500 uL of water IP, there were 6 mice in each group. Tumour volume was estimated twice weekly using the formula: volume=(length×width×width)×(3.142/6).
(§5) Tumour size was measure on Days 6, 10 and 13; the results are shown as the mean and SD from 6 mice per group.

wild type CMT-64 cells = conditions: ethanol 2 g/kg IP days 0-4 (group 3)
Protocol: as §4, §5

CMT-64 cells = conditions: ethanol IP for several days, particularly on Day 6, FIG. 5
Protocol: CMT-64 cells are injected s-c into mice and tumour growth allowed to proceed.
Virus described above is introduced into the CMT-64 cells.
Alcohol (ethanol) is injected IP for several days.
Tumour dimensions are monitored thereafter.

With N.N.[Cl][Pt][Cl] [cisplatin, Cisplatin] as the compound, how does the numbers of cells (Ad-ADH CMT-64 cells [1]) read?
Its numbers of cells is 3.75×10^5.

And the numbers of cells (Ad-ADH Hela cells)?
The numbers of cells was 3.2×10^5.

What about the “number of live cells as a % of the number of cells at the start” value (“number of live cells as a % … at the start” for short) (Daudi lymphoma cells; Cisplatin at 30 μM, 6 hr) of the same compound?
The value was 147%.

And the “number of live cells as a % … at the start” value (Daudi lymphoma cells; Cisplatin at 30 μM, 18 hr)?
Its value is 122%.

And the “number of live cells as a % … at the start” value (Daudi lymphoma cells; Cisplatin at 30 μM, 21 hr)?
The value was 76%.

What about the “number of live cells as a % … at the start” value (Daudi lymphoma cells; Cisplatin at 30 μM, 25 hr) of the same compound?
The value was 82%.

What about the “number of live cells as a % … at the start” value (Daudi lymphoma cells; Cisplatin at 30 μM, 42 hr) of the same compound?
The value was 36%.

And the “number of live cells as a % … at the start” value (Daudi lymphoma cells; repeated experiment, +25 hours)?
Its value is 63%.

And the “cell number as % of starting number” value (CMT-64)?
The value was 80%.

And the “cell number as % of starting number” value (Daudi)?
Its value is 21%.

Which “time until blood ethanol levels fell below the limit of detection” value ([2]; IP ethanol injections of 3.7-3.8 g/kg) does the source give for CCO [ethanol] here?
The value was 6 to 7 h.

What about the “rate of ethanol metabolism in mice relative to humans” value ([2]; mouse, in vivo) of the same compound?
The value was 5 times.

What about the “cell number as % of non-ethanol exposed controls” value (Ad-ADH CMT-64 cells [1]; 2 days ethanol exposure) of the same compound?
Its value is 30%.

What about the number of cells (Ad-ADH CMT-64 cells [1]; ethanol 20 mM, day 2, FIG. 3) of the same compound?
The number of cells was 3.7×10^5.

And the “total cell number as % of the starting number” value (Ad-ADH CMT-64 cells [1]; day 2)?
Its value is 74%.

What about the “total cell number as % of the starting number” value (Ad-ADH CMT-64 cells [1]; day 4) of the same compound?
The value was 36%.

What about the number of cells (Ad-ADH CMT-64 cells [1]; extended ethanol exposure, day 4) of the same compound?
Its number of cells is 1.8×10^5.

And the numbers of cells (Ad-ADH CMT-64 cells [1])?
The numbers of cells was 3.5×10^5.

And the numbers of cells (Ad-ADH Hela cells)?
The numbers of cells was 6.2×10^5.

And the well tolerated levels [3]?
The well tolerated levels was 500 to 2500 mg/L.

What about the cardiac toxicity [4] of the same compound?
Its cardiac toxicity is “severe myocardial damage”.

And the “tumour size of one mouse” value (Ad-ADH CMT-64 cells [5]; Day 10 and Day 23, no further increase)?
The value was 0.058 cm3.

And the “median size as % of the water treated controls” value (Ad-ADH CMT-64 cells [5]; day 6)?
Its value is 30%.

And the “median size as % of the water treated controls” value (Ad-ADH CMT-64 cells [5]; day 13)?
Its value is 42%.

And the “mean size of the tumours” value (Ad-ADH CMT-64 cells [5]; ethanol 2 g/kg IP days 0-4, day 6)?
Its value is 0.036 cm^3.

What about the “mean size of the tumours” value (Ad-ADH CMT-64 cells [5]; ethanol 2 g/kg IP days 0-4, day 13) of the same compound?
Its value is 0.18 cm3.

What about the mean tumour volumes (wild type CMT-64 cells; day 6) of the same compound?
The mean tumour volumes was 0.1645 cm^3.

And the mean tumour volumes (wild type CMT-64 cells; day 13)?
The mean tumour volumes was 0.514 cm^3.

What about the tumour growth (CMT-64 cells) of the same compound?
Its tumour growth is “significant inhibition of growth”.

With Cc1cn[nH]c1 [4-MP, 4-methylpyrazole] as the compound, how does the “effect on ethanol mediated growth reduction” value (Ad-ADH CMT-64 cells [1]; 4-MP 10 uMol) read?
Its value is “blocking of this effect”.
